From patent US10233188B2, “CDK2/4/6 inhibitors” (priority 2016, dated 2019) come the findings set out here.

In one assay the test system is HCC1806 tumor xenograft. Put plainly: HCC1806 mouse tumor xenograft model. Type of assay: in vivo, NU/NU female mice. The note with it: 30 mpk PO BID, 50 mpk PO BID and 75 mpk PO BID, 14 days.
Another assay deals with Ovcar3 tumor xenograft. Put plainly: Ovcar3 mouse tumor xenograft model. It is filed as in vivo, NSG mice. The note with it: 10 mpk PO QD, 50 mpk PO QD and 50 mpk PO BID, 14 days. On the procedure: Ovcar3 tumor cell line, purchased from ATCC (ATCC HTB-161™) was cultured in RPMI1640 (1×) media (Gibco™ cat#11875-093) with 10% FBS (Gibco™ cat #26140-079). To establish a Ovcar3 xenograft model, 5×10^6 cells per mouse was implanted subcutaneously into right hind flank NSG mice (#5557-NOD.cg-Prkdc Jackson Lab). Cells were suspended in 50% matrigel (Cultrex Basement Membrane Extract (BME), Trevigen's Basement Membrane Matrix) and 50% RPMI1640 (1×) media (Gibco™ cat#11875-093) serum free media prior to implantation.
Animals were randomized 39 days after cells implantation with each group consisted of 4 mice. Treatment began when tumors reached 100 mm^3-190 mm^3 in size. Test compounds were prepared in 40% Captisol and dosed PO at 10 and 50 mg/kg QD or at 50 mg/kg BID as a suspension for 14 days. Animals were taken down at designated time. Mice receiving no drugs were given vehicle QD or BID for 14 days. Tumor volumes were measured once prior to randomization with an electric caliper, with tumor volumes were calculated using Length×Width×Width/2 formulation. Tumor volumes were measured twice a week with an electric caliper, with tumor volumes calculated using Length×Width×Width/2 formula. Animal weights were recorded twice weekly.

In the next assay the target is CDK6/Cyclin D1 (Homo sapiens (Human), UniProt Q00534). Put plainly: biochemical. The note with it: CDK6_Ki (nM), non-phosphorylated CDK6/Cyclin D1, 2 mM ATP, Morrison fit.
The next assay has as its target CDK2/Cyclin E1 (Homo sapiens (Human), UniProt P24941). Put plainly: biochemical. The note with it: CDK2_Ki (nM), phosphorylated CDK2/Cyclin E1, 150 μM ATP, Morrison tight-binding fit.
The target in the next assay is CDK4/Cyclin D3 (Homo sapiens (Human), UniProt P11802). Put plainly: biochemical.
Sequence of CDK4/Cyclin D3 (P11802 whole entry): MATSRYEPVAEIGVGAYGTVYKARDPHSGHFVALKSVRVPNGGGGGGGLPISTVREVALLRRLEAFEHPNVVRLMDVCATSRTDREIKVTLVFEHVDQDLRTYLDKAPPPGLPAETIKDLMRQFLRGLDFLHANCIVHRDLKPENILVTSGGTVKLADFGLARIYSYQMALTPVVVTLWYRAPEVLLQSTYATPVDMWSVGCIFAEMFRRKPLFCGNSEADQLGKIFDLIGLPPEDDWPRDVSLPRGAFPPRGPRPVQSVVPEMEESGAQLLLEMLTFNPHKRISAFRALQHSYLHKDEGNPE
Sequence of CDK4/Cyclin D3 (P30281 whole entry partner): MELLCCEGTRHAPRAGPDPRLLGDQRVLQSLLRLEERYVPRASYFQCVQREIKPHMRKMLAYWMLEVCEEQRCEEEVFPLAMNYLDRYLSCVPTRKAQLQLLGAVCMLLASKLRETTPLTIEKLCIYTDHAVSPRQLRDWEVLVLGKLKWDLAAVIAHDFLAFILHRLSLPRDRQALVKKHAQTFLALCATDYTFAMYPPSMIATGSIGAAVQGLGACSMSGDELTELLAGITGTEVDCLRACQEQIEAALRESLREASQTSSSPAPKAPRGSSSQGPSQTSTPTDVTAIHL

Sequence of CDK6/Cyclin D1 (Q00534 whole entry): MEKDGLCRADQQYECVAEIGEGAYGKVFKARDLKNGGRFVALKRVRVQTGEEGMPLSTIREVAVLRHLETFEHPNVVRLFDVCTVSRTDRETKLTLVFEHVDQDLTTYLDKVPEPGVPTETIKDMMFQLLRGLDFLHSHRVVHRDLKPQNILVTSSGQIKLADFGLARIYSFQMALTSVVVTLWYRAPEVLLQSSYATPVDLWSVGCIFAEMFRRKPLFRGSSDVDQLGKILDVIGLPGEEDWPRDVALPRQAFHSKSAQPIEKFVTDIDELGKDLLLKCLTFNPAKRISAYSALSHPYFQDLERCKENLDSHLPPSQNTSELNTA
Sequence of CDK6/Cyclin D1 (P24385 whole entry partner): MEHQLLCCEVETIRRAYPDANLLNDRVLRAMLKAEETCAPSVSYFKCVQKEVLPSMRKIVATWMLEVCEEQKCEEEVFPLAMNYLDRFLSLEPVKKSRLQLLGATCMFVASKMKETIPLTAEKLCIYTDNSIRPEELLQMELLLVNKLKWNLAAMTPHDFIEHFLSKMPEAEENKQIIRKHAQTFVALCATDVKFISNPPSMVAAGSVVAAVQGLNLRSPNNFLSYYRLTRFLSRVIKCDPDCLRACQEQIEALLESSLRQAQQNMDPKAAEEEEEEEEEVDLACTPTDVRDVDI
Description for CDK2/Cyclin E1: The assay was initiated with the addition of ATP, following a fifteen minutes pre-incubation of enzyme and inhibitor at room temperature in the reaction mixture. The reaction was stopped after 45 minutes at room temperature by the addition of 50 μL of 80 mM EDTA, pH 7.5.
Description for HCC1806 tumor xenograft: Source: HCC1806 (# CRL 2335, ATCC, Manassas, Va.)
The HCC1806 tumor cell line was cultured in RPMI1640 media supplemented with 10% Fetal Bovine Serum (FBS). To establish a HCC1806 xenograft model, 5×10^6 cells per mouse were implanted subcutaneously into right hind flank NU/NU female mice. Cells were suspended in 50% Cultrex Basement Membrane Extract and 50% RPMI 1640 media serum free media prior to implantation.
Animals were randomized 7 days after cells implantation with each group consisting of 13 mice. Treatment began when tumors reached 100 mm^3 to 170 mm^3 in size on Day 7. Test compounds were prepared in 0.1% Tween, 0.5% Methyl cellulose in water and dosed PO at 30, 50, and 75 mg/kg as a suspension BID for 14 days. Mice receiving no drugs were given vehicle BID for 14 days. Tumor volumes were measured twice a week with an electric caliper, with tumor volumes calculated using Length×Width×Width/2 formula. Animal weights were recorded twice weekly.

Turning to `C[C@@]1(O)CCC[C@H]1n1c(=O)c(C(F)F)cc2cnc(NC3CCN(S(C)(=O)=O)CC3)nc21` [Example 10, 6-(difluoromethyl)-8-[(1R,2R)-2-hydroxy-2-methylcyclopentyl]-2-{[1-(methylsulfonyl)piperidin-4-yl]amino}pyrido[2,3-d]pyrimidin-7(8H)-one], the “inhibition of tumor growth (mm^3)” value with HCC1806 tumor xenograft is “tumor growth inhibition”.

For `C[C@@]1(O)CCC[C@H]1n1c(=O)ccc2cnc(NC3CCN(S(C)(=O)=O)CC3)nc21` [Example 2, 8-[(1R,2R)-2-hydroxy-2-methylcyclopentyl]-2-{[1-(methylsulfonyl)piperidin-4-yl]amino}pyrido[2,3-d]pyrimidin-7(8H)-one], the “inhibition of tumor growth (mm^3)” value in the assay with HCC1806 tumor xenograft and in the assay on Ovcar3 tumor xenograft was “dose dependent inhibition of tumor growth” in each case.

A word on the Ki: it is a measure of affinity in units of concentration, obtained from inhibition or displacement. Lower therefore signals tighter binding. Take `C[C@@]1(O)CCC[C@H]1n1c(=O)c(CCO)cc2cnc(NC3CCN(S(C)(=O)=O)CC3)nc21` (single isomer, unassigned) [Example 122, (−)-6-(2-hydroxyethyl)-8-[(1R*,2R*)-2-hydroxy-2-methylcyclopentyl]-2-{[1-(methylsulfonyl)piperidin-4-yl]amino}pyrido[2,3-d]pyrimidin-7(8H)-one]: the Ki at CDK6/Cyclin D1 stood at 0.23 nM; on CDK2/Cyclin E1 it was 0.11 nM; at CDK4/Cyclin D3 it was 0.92 nM.
